The nature of this series: Human HepG2 cell viability assay in 384 well format. The conditions noted are these: HepG2 cells, read-out: Inhibition. Also noted: dose 125 nL, time 70.5 hour; cytotoxicity at 70.5 h: concentration not given beside the values. The format is toxicity, cell-based.
Take `CCn1cnnc1CNC(=O)c1cc(Cl)c(I)cc1OC`: the cytotoxicity at 70.5 h was -7.1%.

With `Cc1nn(C)c(C)c1CC(=O)NCc1ccnc(N2CCOCC2)c1`, the cytotoxicity at 70.5 h was -6.63%.

Regarding `CCn1cnnc1CNC(=O)c1cc(F)ccc1OC`, the cytotoxicity at 70.5 h is -6.76%.

Turning to `CC(NC(=O)NCCCN(C)S(C)(=O)=O)c1ccc(C#N)cc1` (centres undefined), the cytotoxicity at 70.5 h was -4.16%.

As to `CCc1cccc(N2CCC(NC(=O)C3CCCO3)CC2)c1` (centres undefined), the cytotoxicity at 70.5 h was -3.65%.

In the case of `CN(C)c1cccc(C(=O)N2CCC(c3n[nH]c(C4CC4)n3)CC2)c1`, the cytotoxicity at 70.5 h was -5.06%.

`CC(C)CN1CCN(C(=O)c2ccn(C)c(=O)c2)CC1`: the cytotoxicity at 70.5 h was -9.05%.

In the case of `COCc1nc(C(=O)N2CCCC2c2cc(C)no2)cs1` (centres undefined), the cytotoxicity at 70.5 h is -7.8%.

In the case of `CCc1cccc(N2CCC(NC(=O)C3CCOCC3)CC2)c1`, the cytotoxicity at 70.5 h was -5.26%.

As to `CCc1cccc(N2CCC(NC(=O)c3ccoc3C)CC2)c1`, the cytotoxicity at 70.5 h is 19.4%.

Take `CCc1cccc(N2CCC(NC(=O)C3CCC3)CC2)c1`: the cytotoxicity at 70.5 h is -6.88%.

Take `O=C(CCc1cccs1)N1CCCC(n2ccnc2)C1` (centres undefined): the cytotoxicity at 70.5 h is -5.36%.

Regarding `Cc1cc(C)n(C2CN(CC(=O)NC3CCS(=O)(=O)C3)C2)n1` (centres undefined), the cytotoxicity at 70.5 h was -9.43%.

Consider `COc1ccc(OCCCNCCn2cccn2)cc1`, for which the cytotoxicity at 70.5 h is 22.8%.

As to `O=C(CCCNc1ncccn1)N1CCCC(n2ccnc2)C1` (centres undefined), the cytotoxicity at 70.5 h is -3.12%.

For the compound `COc1cc(C(=O)N2CCC(c3n[nH]c(C)n3)CC2)cc(OC)c1C`, the cytotoxicity at 70.5 h is -3.07%.

Consider `CC1CCN(S(=O)(=O)NCc2ccccc2Cn2cccn2)CC1`, for which the cytotoxicity at 70.5 h worked out at 14.5%.

On to `COc1ccc(OC)c(C(O)CNC(=O)Nc2ccc(F)cc2F)c1` (centres undefined), for which the cytotoxicity at 70.5 h was -6.18%.

Regarding `Cc1nc(CN2CCN(C(=O)CCc3ccco3)CC2)cs1`, the cytotoxicity at 70.5 h was -5.22%.

As to `Cc1cnn(C2CCCN(C(=O)c3ccc(-n4ccnc4)cc3)C2)c1` (centres undefined), the cytotoxicity at 70.5 h was -17.4%.

`c1ncn(CC2CCCN(Cc3noc(C4CC4)n3)C2)n1` (centres undefined): the cytotoxicity at 70.5 h was -12.6%.

As to `Cc1cc(C)n(CC2CCCN2C(=O)c2ccc(N(C)C)nn2)n1` (centres undefined), the cytotoxicity at 70.5 h was -10.8%.

`Cc1cc(C)n(CC2CCCCN2C(=O)c2ccc(C(N)=O)cc2)n1` (centres undefined): the cytotoxicity at 70.5 h is -12%.

As to `Cc1cc(C)n(CC2CCCN2CCC(=O)Nc2cc(C)on2)n1` (centres undefined), the cytotoxicity at 70.5 h was -7.1%.

Take `O=C(c1cscn1)N1CCCC(n2cncn2)C1` (centres undefined): the cytotoxicity at 70.5 h was -8.94%.

As for `O=C(c1csnn1)N1CCCC(n2cncn2)C1` (centres undefined), the cytotoxicity at 70.5 h is 15.3%.

Regarding `CN(C)c1ccc(C(=O)N2CCCC(n3cncn3)C2)nn1` (centres undefined), the cytotoxicity at 70.5 h is -5.16%.

`Cc1cscc1C(=O)N1CCCC1CC(=O)c1cnn(C)c1` (centres undefined): the cytotoxicity at 70.5 h was -5.58%.

`Cc1nc(CN2CCCC(Cn3cncn3)C2)no1` (centres undefined): the cytotoxicity at 70.5 h was 15.8%.

Consider `CCCc1nc(CN2CCCC2Cn2cncn2)no1` (centres undefined), for which the cytotoxicity at 70.5 h is -6.08%.

In the case of `COC(=O)C(c1cc(F)ccc1F)N(C)C(=O)c1ccccn1` (centres undefined), the cytotoxicity at 70.5 h is -9.53%.

As for `COCCCNC(=O)N1CCC(CNC(=O)c2cnn(C)c2)CC1`, the cytotoxicity at 70.5 h is -8.18%.

In the case of `CC(C)n1ccc(C(=O)N2CCCC(n3cncn3)C2)n1` (centres undefined), the cytotoxicity at 70.5 h is -10.6%.

As for `COc1ccc(OC)c(CNC(=O)N2CCC(n3cncn3)CC2)c1`, the cytotoxicity at 70.5 h came out at 35%.

Consider `Fc1ccc(OCCCN2CCCC(Cn3cncn3)C2)cc1` (centres undefined), for which the cytotoxicity at 70.5 h was -3.77%.

In the case of `O=C(NCCNc1cnccn1)N1CCCCCC1`, the cytotoxicity at 70.5 h was 2.18%.

Take `Cc1cnn(CC(=O)N2CCCN(c3ncccc3C#N)CC2)c1`: the cytotoxicity at 70.5 h was -1.08%.

For `Cc1cc(C)c(CNC(=O)N2CCOC(c3ccccc3)C2)c(=O)[nH]1` (centres undefined), the cytotoxicity at 70.5 h is -8.25%.

For the compound `Cn1cc(CCC(=O)N2CCCN(c3ncccc3C#N)CC2)cn1`, the cytotoxicity at 70.5 h turned out to be 35.5%.

As for `O=C(NCCNc1cnccn1)N1CCN(c2nccs2)CC1`, the cytotoxicity at 70.5 h is -8.94%.

Consider `Cc1ccccc1CNC(=O)N1CCC(n2cncn2)CC1`, for which the cytotoxicity at 70.5 h was -5.36%.

Regarding `CC(C)Sc1ncccc1C(=O)NCc1ccc(O)cc1`, the cytotoxicity at 70.5 h was -2.85%.

Consider `O=C(Cn1cc(-c2ccccc2)cn1)NC(C1CC1)C1CC1`, for which the cytotoxicity at 70.5 h is -5.32%.

Take `N#Cc1ccc(OCCCN2CCOC(Cn3cncn3)C2)cc1` (centres undefined): the cytotoxicity at 70.5 h was determined as 32.1%.

`COc1cc(Cl)ccc1CNC(=O)N1CCC(n2cncn2)CC1`: the cytotoxicity at 70.5 h came out at 0.114%.

Regarding `CCCc1n[nH]c(C2CN(C(=O)CCn3ccccc3=O)CCO2)n1` (centres undefined), the cytotoxicity at 70.5 h is -2.27%.

On to `CC(C)c1n[nH]c(C2CN(C(=O)Cn3ccccc3=O)CCO2)n1` (centres undefined), for which the cytotoxicity at 70.5 h is -2.65%.

As to `CCNC(c1cccnc1)c1ccc(F)cc1F` (centres undefined), the cytotoxicity at 70.5 h turned out to be 2.45%.

Consider `COc1ccnc(C(=O)N2CCCC(c3noc(C)n3)C2)c1` (centres undefined), for which the cytotoxicity at 70.5 h was -12.8%.

As for `Fc1cccc(-c2nc(CN3CCOC(Cn4cncn4)C3)co2)c1` (centres undefined), the cytotoxicity at 70.5 h is -15.8%.

In the case of `COc1ccc(CCN2CCc3c(nc(C4CC4)n3C)C2)cc1`, the cytotoxicity at 70.5 h is -2.39%.

For `Cc1n[nH]c(C)c1NC(=O)CN1CCc2c(nc(C3CC3)n2C)C1`, the cytotoxicity at 70.5 h is 17.7%.

Consider `CC(C)OCCN1CCN(C(=O)c2cccc(CC#N)c2)CC1`, for which the cytotoxicity at 70.5 h was -12%.

Regarding `CCN(Cc1ccc2c(c1)OCO2)C(=O)NC(C)Cn1cccn1` (centres undefined), the cytotoxicity at 70.5 h is -12.9%.

In the case of `COCC(O)CN(C)C(=O)NC1CCN(Cc2ccccn2)CC1` (centres undefined), the cytotoxicity at 70.5 h was -17.1%.

For `CC(Cn1ccnc1)NC(=O)NCCc1ccc2c(c1)OCCO2` (centres undefined), the cytotoxicity at 70.5 h was found to be 13.3%.

Turning to `CCN(Cc1ccc2c(c1)OCCO2)C(=O)NC(C)Cn1ccnc1` (centres undefined), the cytotoxicity at 70.5 h was -12.9%.

Take `COCc1ccccc1CNc1cc(N2CCCC2CO)ncn1` (centres undefined): the cytotoxicity at 70.5 h was -18.2%.

As for `O=C1CCc2cc(-c3csc(CCN4CCCC4=O)n3)ccc2N1`, the cytotoxicity at 70.5 h was -14.6%.

Regarding `CC(C)c1cc(NC(=O)CN2CCc3ccccc3C2)on1`, the cytotoxicity at 70.5 h is -6.95%.

`CC(NC(=O)c1cccs1)C(=O)NCc1ccccc1CN1CCCC1` (centres undefined): the cytotoxicity at 70.5 h was -2%.

Regarding `COc1ncccc1NC(=O)NCC1CCS(=O)(=O)C1` (centres undefined), the cytotoxicity at 70.5 h was -18.6%.

For the compound `CCn1cnnc1CNC(=O)NC(C)c1cccs1` (centres undefined), the cytotoxicity at 70.5 h was -14.5%.

Turning to `CN(Cc1cnn(C)c1)C(=O)NC1CCN(Cc2ccccn2)CC1`, the cytotoxicity at 70.5 h is -11.3%.

For the compound `Cc1ncsc1C(=O)NC1CCN(CCC(N)=O)CC1`, the cytotoxicity at 70.5 h is -21.4%.

As to `c1ccc(-n2ccnc2)c(CNCC2CNc3ccnn3C2)c1` (centres undefined), the cytotoxicity at 70.5 h was -20.8%.

For `O=C(Cc1ccc2c(c1)OCCO2)NC1CCN(CC(F)F)CC1`, the cytotoxicity at 70.5 h is -19.5%.

As to `CCn1cnnc1CNC(=O)NCC(c1cccs1)N1CCCC1` (centres undefined), the cytotoxicity at 70.5 h is -14%.

In the case of `Cc1cccc(C)c1OCCC(=O)N1CCC(c2nncn2C)CC1`, the cytotoxicity at 70.5 h was -21.4%.

Take `Cc1ccc(C(=O)CCC(=O)N2CCC(c3nncn3C)CC2)cc1`: the cytotoxicity at 70.5 h is -4.47%.

For `Cn1ccnc1CN1CCN(CC(O)c2ccc(F)c(F)c2)CC1` (centres undefined), the cytotoxicity at 70.5 h came to 13.5%.

Consider `CC(C)c1cc(NC(=O)CN2CCc3cncnc3C2)on1`, for which the cytotoxicity at 70.5 h was -11.7%.

`CC(=O)Nc1nc(C(=O)N2CCCC2c2noc(C)n2)cs1` (centres undefined): the cytotoxicity at 70.5 h was found to be 6.71%.

In the case of `CCn1ccnc1CN(C)CC1CCCN1c1cccnn1` (centres undefined), the cytotoxicity at 70.5 h came out at 10%.

The record behind these values is ChEMBL document CHEMBL3507680, “University of Dundee, Gates Library screen for HepG2 cell viability”.
